Values of other authors as cited in publication PMC10655862 (Methods in enzymology, 2023).
Where two headings read alike, the source gives them in different places.

Columns and labels:
[1] = system: AKR1D1; conditions: 5β-reduction, fluorometric, pH 6.0, 37 °C; ref Chen et al., (2011)
[2] = biological target: AKR1C3; conditions: AKR1C3, competitive inhibition (C); ref Bauman et al. (2005)
[3] = biological target: AKR1C2; conditions: AKR1C2, competitive inhibition (C); ref Bauman et al. (2005)
[4] = system: AKR1D1 (5β-reductase); conditions: ref Chen et al., (2011); for Type of inhibition (5β-reductase): inhibition of testosterone reduction; for inhibition of AKR1D1, in words: reduction of [4-14C]-testosterone
[5] = biological target: AKR1C1; conditions: AKR1C1, competitive inhibition (C); ref Bauman et al. (2005)
[6] = biological target: 5α-reductase type 2 (SRD5A2); conditions: ref Bull et al. (1996)
[7] = biological target: aldose reductase AKR1B1; conditions: NADPH binding to AKR1B1, literature comparison; ref not given

Structure (SMILES) | Km [1] | inhibition of AKR1D1, in words [4] | further results
C[C@]12CC[C@H]3[C@@H](CCC4=CC(=O)C=C[C@@]43C)[C@@H]1CC[C@@H]2O [1,4-Androstadien-17β-ol-3-one] | 3.2 ± 0.2 µM |  | 
O=C(O)c1ccc(C(=O)c2ccccc2)cc1 [4-Benzoylbenzoic acid] |  | ineffective | Ki [2]: 1900 nM; Ki [3]: 13300 nM; Type of inhibition (5β-reductase) [4]: n.i.; Ki [5]: 12500 nM
CC(C)CCC[C@@H](C)[C@H]1CC[C@H]2[C@@H]3[C@H](O)CC4=CC(=O)CC[C@]4(C)[C@H]3CC[C@]12C [4-Cholesten-7α-ol-3-one] | 0.8 ± 0.2 µM |  | 
C[C@]12CC[C@H]3[C@@H](CCC4=CC(=O)CC[C@@H]43)[C@@H]1CC[C@@H]2O [4-Estren-l7β-ol-3-one] | 3 ± 0.5 µM |  | 
C[C@H](CCC(=O)O)[C@H]1CC[C@H]2[C@@H]3[C@H](O)C[C@@H]4C[C@H](O)CC[C@]4(C)[C@H]3CC[C@]12C [Chenodeoxycholic acid] |  | weak non-competitive inhibitors | Ki [2]: 10000 nM; Ki [3]: 17 nM; Ki [5]: 8300 nM
CC(C)CCC[C@@H](C)[C@H]1CC[C@H]2[C@@H]3CCC4=CC(=O)CC[C@]4(C)[C@H]3CC[C@]12C [Cholestenone] | 0.3 ± 0.1 µM |  | 
C[C@]12C[C@H](O)[C@H]3[C@@H](CCC4=CC(=O)CC[C@@]43C)[C@@H]1CC[C@@H]2C(=O)CO [Corticosterone] | 2.2 ± 0.5 µM |  | 
C[C@]12CCC(=O)C=C1CC[C@@H]1[C@@H]2[C@@H](O)C[C@@]2(C)[C@H]1CC[C@]2(O)C(=O)CO [Cortisol] | 13.1 ± 1.8 µM |  | 
C[C@]12CCC(=O)C=C1CC[C@@H]1[C@@H]2C(=O)C[C@@]2(C)[C@H]1CC[C@]2(O)C(=O)CO [Cortisone] | 15.1 ± 0.3 µM |  | 
C[C@]12CC[C@H]3[C@@H](CCC4=CC(=O)CC[C@@]43C)[C@@H]1CC[C@H]2O [Epitestosterone] | 2.9 ± 0.6 µM |  | 
CC(C)(C)NC(=O)[C@H]1CC[C@H]2[C@@H]3CC[C@H]4NC(=O)C=C[C@]4(C)[C@H]3CC[C@]12C [Finasteride] |  | competitive inhibitor | Ki ([6]; competitive inhibition (C)): 26 nM; Ki ([6]; mechanism-based inhibition (MBI)): < 1 nM
COc1ccc2c(c1)c(CC(=O)O)c(C)n2C(=O)c1ccc(Cl)cc1 [Indomethacin] |  | ineffective | Type of inhibition (5β-reductase) [4]: n.i.
Cc1cccc(Nc2ccccc2C(=O)O)c1C [Mefenamic acid] |  | ineffective | Type of inhibition (5β-reductase) [4]: n.i.; Ki [5]: 800 nM
NC(=O)C1=CN([C@@H]2O[C@H](COP(=O)(O)OP(=O)(O)OC[C@H]3O[C@@H](n4cnc5c(N)ncnc54)[C@H](OP(=O)(O)O)[C@@H]3O)[C@@H](O)[C@H]2O)C=CC1 [NADPH] |  |  | Kd [7]: 9 nM
C[C@]12CC[C@H]3[C@@H](CCC4=CC(=O)CC[C@@]43C)[C@@H]1CC[C@@H]2O [Testosterone] | 2.7 ± 1.2 µM |  | 
C[C@H](CCC(=O)O)[C@H]1CC[C@H]2[C@@H]3[C@@H](O)C[C@@H]4C[C@H](O)CC[C@]4(C)[C@H]3CC[C@]12C [Ursodeoxycholic acid] |  | weak non-competitive inhibitors | Ki [2]: 1300 nM; Ki [3]: 11 nM; Ki [5]: 4900 nM
C[C@]12CCC(=O)C=C1CC[C@@H]1[C@@H]2CC[C@]2(C)C(=O)CC[C@@H]12 [Δ^4-Androstene-3,17-dione] | 0.9 ± 0.2 µM |  | 
